Assay results published in US20240217946A1, “ANTIDEPRESSANT AND ANXIOLYTIC SUBSTITUTED CINNAMAMIDE COMPOUND” (TASLY PHARMACEUTICAL GROUP CO., LTD., priority 2021, published 2024).
“And” between values parts separate entries of the source, which are not always exact repeats. Equal entries are not always repeated. Where two headings read alike, the source gives them in different places.

How the values were obtained:
[1] = tested on: DA reuptake in rat brain synaptosomes; experiment: 3H-DA reuptake by rat brain synaptosomes; format: biochemical; conditions: 3H-DA 10 nM, rat brain synaptosomes; read-out: DA inhibition rate % IC50
Text: At present, it is believed that absolute or relative deficiencies of the central monoamine neurotransmitters 5-hydroxytryptamine (5-HT), norepinephrine (NA) and dopamine (DA) are closely related to depression and anxiety. This experiment was designed to evaluate, by the method of in vitro monoamine reuptake, the inhibitory effect of two samples of tested compound I-5 and compound M2 on reuptake of 5-HT, NA and DA in rat brain synaptosomes. The preparation of in vitro SD rat brain synaptosomes and isotopic tracer method were employed to investigate IC50 of inhibition of monoamine reuptake of DA, 5-HT and NA in two tested samples, in order to explore the possible mechanism of antidepressant and anxiolytic effects of compound I-5 and compound M2.
Synaptosomes were separated using methods in literature to prepare brain synaptosomes. SD rats were rapidly decapitated with a small animal decapitator. After decapitation, brains were taken out quickly and precooled in an ice-water mixture, and the pia mater and vascular tissue were removed. Brain tissue was taken out. 10 times volume (ml/g) of 10 mM Tris HCl buffer (containing 0.32 M sucrose, pH 7.4) was added, an ultrasonic cell pulverizer was used for homogenization (maintaining at a low temperature), and the brain tissue was homogenized and centrifuged for 10 min (4° C., 1,000 g). After balanced centrifugation (1500 g, 10 min) at 4° C., precipitate was discarded, then supernatant was taken, and centrifugation (20000 g) was performed again for 30 min. The supernatant was discarded and the precipitate, i.e. crude extract of synaptic corpuscles, was retained. […] The precipitate was suspended in a small amount of Kreb's buffer (NaCl 118 mM, KCl 4.7 mM, CaCl2) 2.5 mM, MgSO4 1.2 mM, KH2PO4 1.2 mM, NaHCO325 mM and Glucose 11.1 mM, pH 7.2-7.4), BCA method was used for protein quantification, and the operation steps were as described in the description. […]
The percentage inhibition of isotope ligand binding by each compound was calculated according to the following equation: […]

[2] = Pharmacokinetics and absolute bioavailability in rats (LC-MS/MS); format: in vivo; conditions: rat; for MRT inf: read-out: MRT0-∞
Text: A LC-MS/MS method for determination of compound I-5 and compound M2 in rat plasma was established through experiments to investigate the pharmacokinetic characteristics and absolute bioavailability of compounds in rats.
20 SPF-grade SD male rats (body weight 220±20 g), purchased from Beijing Vital River Laboratory Animal Technology Co., Ltd.
• Chromatographic column: waters BEH C18 1.7 μm; 2.1×100 mm Column • Internal standard: D-I-5 (deuterated compound I-5, with the following structural formula)
20 SD rats were randomly divided into 4 groups, with 5 rats in each group. […]
50 μL plasma was taken, 50 μL D-I-5 (20 ng/mL dissolved in acetonitrile) was added, the mixture was whirled for 30 s, then 100 μL acetonitrile was added; the mixture was fully whirled for 2 min, and was centrifuged at 4° C. at 12000 r/min for 3 min, 50 μL supernatant was taken, 50 μL aqueous solution was added for dilution, followed by whirling for Imin, and 4 μL sample was injected.
The mean plasma concentration-time curves of rats after oral intragastric administration and intravenous administration were respectively shown in FIGS. 8 and 9. Data were processed using DAS 3.0 pharmacokinetic software (Chinese Professional Committee of Mathematical Pharmacology, Shanghai, China), and statistical moment parameters of the non-compartmental model were calculated, Cmax and Tmax being measured values.

[3] = male, SD, plasma, po, intragastric administration 12.5 mg/kg, n = 5
[4] = male, SD, plasma, intravenous administration 2.5 mg/kg, n = 5
[5] = male, Sprague-Dawley (SD), plasma, po, intragastric administration 12.5 mg/kg, n = 5
[6] = male, Sprague-Dawley (SD), plasma, intravenous administration 2.5 mg/kg, n = 5

NC(=O)/C=C/c1cc2c(c(C(F)(F)F)c1)OCO2 [Compound M2]
IC50 [1]: 37.3 ± 1.97 nM
bioavailability ([2]; male, SD, plasma, oral, absolute bioavailability, intragastric 12.5 mg/kg vs intravenous 2.5 mg/kg, read-out: F (bioavailability, %)): 40.8%
AUC(0-t) [2, 3]: 1080 ± 373 ng·h/mL
Tmax [2, 3]: 21 min
half-life [2, 3]: 61.8 ± 20.4 min
C0 [2, 4]: 1640 ± 319 ng/mL
half-life [2, 4]: 14.4 ± 1.8 min
concentration at 0.08 h ([2]; male, SD, plasma, iv, 2.5 mg/kg, single intravenous 2.5 mg/kg, 0.08 h, read-out: Plasma concentration, Mean): 1210 ng/mL
concentration at 0.08 h ([2]; male, SD, plasma, iv, 2.5 mg/kg, single intravenous 2.5 mg/kg, 0.08 h, read-out: Plasma concentration, individual rats): 1090 ng/mL
concentration at 0.25 h ([2]; male, SD, plasma, iv, 2.5 mg/kg, single intravenous 2.5 mg/kg, 0.25 h, read-out: Plasma concentration, Mean): 639 ng/mL
concentration at 0.25 h ([2]; male, SD, plasma, iv, 2.5 mg/kg, single intravenous 2.5 mg/kg, 0.25 h, read-out: Plasma concentration, individual rats): 575 ng/mL
concentration at 0.5 h ([2]; male, SD, plasma, iv, 2.5 mg/kg, single intravenous 2.5 mg/kg, 0.50 h): 315 ng/mL
concentration at 1 h ([2]; male, SD, plasma, iv, 2.5 mg/kg, single intravenous 2.5 mg/kg, 1 h, read-out: Plasma concentration, Mean): 79 ng/mL
concentration at 2 h ([2]; male, SD, plasma, iv, 2.5 mg/kg, single intravenous 2.5 mg/kg, 2 h): 5.46 ng/mL
concentration at 3 h ([2]; male, SD, plasma, iv, 2.5 mg/kg, single intravenous 2.5 mg/kg, 3 h): 3.21 ng/mL
concentration at 0.08 h ([2]; male, SD, plasma, oral, 12.5 mg/kg, single intragastric 12.5 mg/kg, 0.08 h, read-out: Plasma concentration, Mean): 191 ng/mL
concentration at 0.25 h ([2]; male, SD, plasma, oral, 12.5 mg/kg, single intragastric 12.5 mg/kg, 0.25 h, read-out: Plasma concentration, Mean): 398 ng/mL
concentration at 0.5 h ([2]; male, SD, plasma, oral, 12.5 mg/kg, single intragastric 12.5 mg/kg, 0.50 h): 387 ng/mL
concentration at 1 h ([2]; male, SD, plasma, oral, 12.5 mg/kg, single intragastric 12.5 mg/kg, 1 h, read-out: Plasma concentration, Mean): 211 ng/mL
concentration at 1 h ([2]; male, SD, plasma, oral, 12.5 mg/kg, single intragastric 12.5 mg/kg, 1 h, read-out: Plasma concentration, individual rats): 145 ng/mL
concentration at 2 h ([2]; male, SD, plasma, oral, 12.5 mg/kg, single intragastric 12.5 mg/kg, 2 h): 132 ng/mL
concentration at 3 h ([2]; male, SD, plasma, oral, 12.5 mg/kg, single intragastric 12.5 mg/kg, 3 h): 134 ng/mL
concentration at 4 h ([2]; male, SD, plasma, oral, 12.5 mg/kg, single intragastric 12.5 mg/kg, 4 h, read-out: Plasma concentration, Mean): 164 ng/mL
concentration at 6 h ([2]; male, SD, plasma, oral, 12.5 mg/kg, single intragastric 12.5 mg/kg, 6 h): 86.7 ng/mL
concentration at 8 h ([2]; male, SD, plasma, oral, 12.5 mg/kg, single intragastric 12.5 mg/kg, 8 h, read-out: Plasma concentration, Mean): 2.07 ng/mL
concentration at 8 h ([2]; male, SD, plasma, oral, 12.5 mg/kg, single intragastric 12.5 mg/kg, 8 h, read-out: Plasma concentration, individual rats): 5.38 ng/mL
Cmax ([2]; male, SD, plasma, po, 12.5 mg/kg, intragastric administration 12.5 mg/kg, n = 5, read-out: Cmax): 425 ± 137 ng/mL
AUC(0-inf) [2, 5]: 1120 ± 367 ng·h/mL
AUC(0-t) [2, 5]: 1080 ± 373 ng·h/mL
MRT inf [2, 5]: 151 ± 36.6 min
AUC(0-inf) [2, 6]: 532 ± 127 ng·h/mL
AUC(0-t) [2, 6]: 529 ± 130 ng·h/mL
MRT inf [2, 6]: 18.6 ± 3.6 min
Cmax ([2]; intragastric administration 12.5 mg/kg, n = 5, 12.5 mg/kg): 425.47 ± 136.97 ng/mL
Plasma concentration, individual rats ([2]; single intragastric 12.5 mg/kg, 0.08 h): 78.15 ng/mL and 127.05 ng/mL and 78.40 ng/mL and 240.77 ng/mL and 433.00 ng/mL
Plasma concentration, individual rats ([2]; single intragastric 12.5 mg/kg, 0.25 h): 213.75 ng/mL and 487.46 ng/mL and 212.80 ng/mL and 494.43 ng/mL and 582.67 ng/mL
Plasma concentration, individual rats ([2]; single intragastric 12.5 mg/kg, 0.50 h): 270.87 ng/mL and 411.67 ng/mL and 291.90 ng/mL and 416.38 ng/mL and 542.56 ng/mL
Plasma concentration, individual rats ([2]; single intragastric 12.5 mg/kg, 1 h): 184.82 ng/mL and 165.92 ng/mL and 270.26 ng/mL and 288.12 ng/mL
Plasma concentration, individual rats ([2]; single intragastric 12.5 mg/kg, 2 h): 90.66 ng/mL and 71.40 ng/mL and 131.47 ng/mL and 231.27 ng/mL and 133.28 ng/mL
Plasma concentration, individual rats ([2]; single intragastric 12.5 mg/kg, 3 h): 175.71 ng/mL and 60.26 ng/mL and 194.74 ng/mL and 114.91 ng/mL and 122.55 ng/mL
Plasma concentration, individual rats ([2]; single intragastric 12.5 mg/kg, 4 h): 268.66 ng/mL and 107.99 ng/mL and 188.58 ng/mL and 66.64 ng/mL and 188.12 ng/mL
Plasma concentration, individual rats ([2]; single intragastric 12.5 mg/kg, 6 h): 57.55 ng/mL and 48.74 ng/mL and 11.84 ng/mL and 15.99 ng/mL and 299.46 ng/mL
Plasma concentration, individual rats ([2]; single intragastric 12.5 mg/kg, 8 h): BLOQ (3×) and 3.64 ng/mL
Plasma concentration, individual rats ([2]; single intravenous 2.5 mg/kg, 0.08 h, 2.5 mg/kg): 1221.94 ng/mL and 1589.64 ng/mL and 991.98 ng/mL and 1170.61 ng/mL
Plasma concentration, individual rats ([2]; single intravenous 2.5 mg/kg, 0.25 h, 2.5 mg/kg): 742.62 ng/mL and 807.81 ng/mL and 497.57 ng/mL and 574.42 ng/mL
Plasma concentration, individual rats ([2]; single intravenous 2.5 mg/kg, 0.50 h, 2.5 mg/kg): 281.81 ng/mL and 435.1 ng/mL and 406.94 ng/mL and 201.98 ng/mL and 248.89 ng/mL
Plasma concentration, individual rats ([2]; single intravenous 2.5 mg/kg, 1 h, 2.5 mg/kg): 74.30 ng/mL and 130.96 ng/mL and 92.59 ng/mL and 39.74 ng/mL and 57.32 ng/mL
Plasma concentration, individual rats ([2]; single intravenous 2.5 mg/kg, 2 h, 2.5 mg/kg): 4.62 ng/mL and 12.27 ng/mL and 2.23 ng/mL and BLOQ and 2.72 ng/mL
Plasma concentration, individual rats ([2]; single intravenous 2.5 mg/kg, 3 h, 2.5 mg/kg): 2.035 ng/mL and 4.403 ng/mL and BLOQ (3×)
Plasma concentration, individual rats ([2]; single intravenous 2.5 mg/kg, 4 h): BLOQ
Plasma concentration, individual rats ([2]; single intravenous 2.5 mg/kg, 6 h): BLOQ
Plasma concentration, individual rats ([2]; single intravenous 2.5 mg/kg, 8 h): BLOQ
